Our source for the IC50 values is patent US7776847B2, “Benzisothiazoles useful for treating or preventing HCV infection” (priority 2005, dated 2010).

Some results are limits rather than exact numbers.

The first assay has as its system HCV replicon. As to the kind of experiment: HCV replicon luciferase reporter assay. The class given is cell-based. Details: scale not given here. The conditions noted are these: Hepatitis C virus, Table 5; read-out: IC50. The procedure:
The inhibitory activity of certain exemplary compounds of the invention was confirmed using an HCV replicon assay. The HCV replicon can include such features as the HCV IRES, the HCV 3′ untranslated region, selected HCV genes encoding HCV polypeptides, selectable markers, and a reporter gene such as luciferase, GFP, etc. In the assay, actively dividing replicon-comprising cells were seeded at a density of between about 5,000 and 7,500 cells/well onto 96 well plates (about 90 μl of cells per well) and incubated at 37° C. and 5% CO2 for 24 hours. Then, the test compound (in a volume of about 10 μL) was added at various concentrations to each well and the cells were incubated for an additional 24-48 hours. The cells were harvested, and HCV replication or translation was monitored via a reporter assay, e.g., a luciferase reporter assay. The media was aspirated from each cell and Bright-Glo ([…].) luciferase assay reagents were added to each well according to the manufacturer's instructions. In this assay, the amount of test compound that yielded a 50% reduction in luciferase activity (IC50) was determined.
For orientation: IC50 means the concentration at which inhibition is half-maximal. As for `COc1ccc(-c2ccc(CNCCCNC3=NS(=O)(=O)c4ccccc43)cc2)cc1` [Compound 324, N-(1,1-dioxido-1,2-benzisothiazol-3-yl)-N′-[(4′-methoxybiphenyl-4-yl)methyl]propane-1,3-diamine], the half-inhibitory concentration (IC50) is greater than 5 µM.
As for `O=S(=O)(NCCCNc1nsc2ccccc12)c1ccc(I)cc1` [Compound 325, N-(3-(benzo[d]isothiazol-3-ylamino)propyl)-4-iodobenzenesulfonamide], the IC50 was less than 5 µM.
The same measure, in the same setting: as for `FC(F)(F)c1ccccc1CNCCCNc1nsc2ccccc12` [Compound 326, N^1-(benzo[d]isothiazol-3-yl)-N^3-(2-(trifluoromethyl)benzyl)propane-1,3-diamine], the figure is less than 5 µM; as for `COc1cc(CNCCCNc2nsc3ccccc23)c(OCc2ccccc2)cc1OC` [Compound 327, N^1-(benzo[d]isothiazol-3-yl)-N^3-(2-(benzyloxy)-4,5-dimethoxybenzyl)propane-1,3-diamine], less than 5 µM; as for `c1ccc(COc2cccc(CNCCCNc3nsc4ccccc34)c2)cc1` [Compound 328, N^1-(benzo[d]isothiazol-3-yl)-N^3-(3-(benzyloxy)benzyl)propane-1,3-diamine], less than 5 µM.
Regarding `c1ccc(-c2ncc(CNCCCNc3nsc4ccccc34)[nH]2)cc1` [Compound 329, N^1-(benzo[d]isothiazol-3-yl)-N^3-((2-phenyl-1H-imidazol-4-yl)methyl)propane-1,3-diamine], the IC50 is less than 5 µM.
The same measure, in the same setting: to `c1ccc(-c2[nH]c3ccccc3c2CNCCCNc2nsc3ccccc23)cc1` [Compound 330, N^1-(benzo[d]isothiazol-3-yl)-N^3-((2-phenyl-1H-indol-3-yl)methyl)propane-1,3-diamine] belongs less than 5 µM; to `COc1ccc(-c2ccc(S(=O)(=O)NCCCNc3nsc4ccccc34)cc2)cc1` [Compound 331, N-(3-(benzo[d]isothiazol-3-ylamino)propyl)-4′-methoxybiphenyl-4-sulfonamide], less than 5 µM; to `COc1ccc(-c2ccc(S(=O)(=O)NCCCNc3nsc4ccccc34)cc2)cc1OC` [Compound 332, N-(3-(benzo[d]isothiazol-3-ylamino)propyl)-3′,4′-dimethoxybiphenyl-4-sulfonamide], less than 5 µM.
For the molecule `O=S(=O)(NCCCNc1nsc2ccccc12)c1ccc(-c2ccc(OC(F)(F)F)cc2)cc1` [Compound 333, N-(3-(benzo[d]isothiazol-3-ylamino)propyl)-4′-(trifluoromethoxy)biphenyl-4-sulfonamide], the half-inhibitory concentration (IC50) is less than 5 µM.
On the same count and under the same terms, as for `COC(=O)c1ccc(-c2ccc(S(=O)(=O)NCCCNc3nsc4ccccc34)cc2)cc1` [Compound 334, methyl 4′-(N-(3-(benzo[d]isothiazol-3-ylamino)propyl)sulfamoyl)biphenyl-4-carboxylate], the figure is less than 5 µM; as for `O=S(=O)(NCCCNc1nsc2ccccc12)c1ccc(-c2ccccc2C(F)(F)F)cc1` [Compound 335, N-(3-(benzo[d]isothiazol-3-ylamino)propyl)-2′-(trifluoromethyl)biphenyl-4-sulfonamide], less than 5 µM; as for `FC(F)(F)Oc1ccc(-c2ccc(CNCCCNc3nsc4ccccc34)cc2)cc1` [Compound 336, N^1-(benzo[d]isothiazol-3-yl)-N^3-((4′-(trifluoromethoxy)biphenyl-4-yl)methyl)propane-1,3-diamine], less than 5 µM.
As for `c1ccc2oc(CNCCCNc3nsc4ccccc34)cc2c1` [Compound 337, N^1-(benzo[d]isothiazol-3-yl)-N^3-(benzofuran-2-ylmethyl)propane-1,3-diamine], the IC50 was less than 5 µM.
As to `c1ccc2c(NCCCNCc3ccc(N4CCCC4)cc3)nsc2c1` [Compound 338, N^1-(benzo[d]isothiazol-3-yl)-N^3-(4-(pyrrolidin-1-yl)benzyl)propane-1,3-diamine], the IC50 was less than 5 µM.
In the case of `COc1ccc(-c2ccc(CN(CCCNc3nsc4ccccc34)C(=O)CS(C)(=O)=O)cc2)cc1` [Compound 339, N-(3-(benzo[d]isothiazol-3-ylamino)propyl)-N-((4′-methoxybiphenyl-4-yl)methyl)-2-(methylsulfonyl)acetamide], the IC50 is less than 5 µM.
On to `COc1ccc(-c2ccc(CN(CCCNC3=NS(=O)(=O)c4ccccc43)S(=O)(=O)c3cn(C)c(C)n3)cc2)cc1` [Compound 340, N-{3-[(1,1-dioxido-1,2-benzisothiazol-3-yl)amino]propyl}-N-[(4′-methoxybiphenyl-4-yl)methyl]-1,2-dimethyl-1H-imidazole-4-sulfonamide], for which the IC50 is greater than 5 µM.
Take `COc1cccc(CNCCCNc2nsc3ccccc23)c1` [Compound 343, N^1-(benzo[d]isothiazol-3-yl)-N^3-(3-methoxybenzyl)propane-1,3-diamine]: the IC50 is less than 5 µM.
Consider `COc1cccc(S(=O)(=O)N(C)CCCN(C)c2nsc3ccccc23)c1` [Compound 344, N-(3-(benzo[d]isothiazol-3-yl(methyl)amino)propyl)-3-methoxy-N-methylbenzenesulfonamide], for which the IC50 was greater than 5 µM.
Still for that read-out and setting: as for `CN(CCCN(C)S(=O)(=O)c1ccccc1C(F)(F)F)c1nsc2ccccc12` [Compound 345, N-(3-(benzo[d]isothiazol-3-yl(methyl)amino)propyl)-N-methyl-2-(trifluoromethyl)benzenesulfonamide], the figure is greater than 5 µM; as for `O=C1CCCN1c1ccc(CNCCCNc2nsc3ccccc23)cc1` [Compound 346, 1-(4-((3-(benzo[d]isothiazol-3-ylamino)propylamino)methyl)phenyl)pyrrolidin-2-one], greater than 5 µM; as for `COc1ccc(-c2ccc(CN(C)CCCN(C)c3nsc4ccccc34)cc2)cc1` [Compound 347, N^1-(benzo[d]isothiazol-3-yl)-N^3-((4′-methoxybiphenyl-4-yl)methyl)-N^1,N^3-dimethylpropane-1,3-diamine], greater than 5 µM.
`O=C(N[C@@H](C(=O)NCCNc1nsc2ccccc12)c1ccccc1)c1ccc(Cl)cc1` [Compound 348, (R)-N-(2-(2-(benzo[d]isothiazol-3-ylamino)ethylamino)-2-oxo-1-phenylethyl)-4-chlorobenzamide]: the IC50 is less than 5 µM.
With `O=C(NCCNc1nsc2ccccc12)c1ccc(F)cc1F` [Compound 349, N-(2-(benzo[d]isothiazol-3-ylamino)ethyl)-2,4-difluorobenzamide], the IC50 was less than 5 µM.
On to `O=C(NCCNc1nsc2ccccc12)c1cc(F)ccc1F` [Compound 350, N-(2-(benzo[d]isothiazol-3-ylamino)ethyl)-2,5-difluorobenzamide], for which the IC50 is less than 5 µM.
On to `O=C(NCCNc1nsc2ccccc12)c1ccccc1C(F)(F)F` [Compound 351, N-(2-(benzo[d]isothiazol-3-ylamino)ethyl)-2-(trifluoromethyl)benzamide], for which the IC50 was less than 5 µM.
On to `O=C(NCCNc1nsc2ccccc12)c1cc(F)ccc1C(F)(F)F` [Compound 352, N-(2-(benzo[d]isothiazol-3-ylamino)ethyl)-5-fluoro-2-(trifluoromethyl)benzamide], for which the IC50 was greater than 5 µM.
Same read-out and setting: as for `O=C(NCCNc1nsc2ccccc12)c1cc(F)cc(C(F)(F)F)c1` [Compound 353, N-(2-(benzo[d]isothiazol-3-ylamino)ethyl)-3-fluoro-5-(trifluoromethyl)benzamide], the figure is less than 5 µM.
In the case of `O=C(NCCNc1nsc2ccccc12)c1ccc(C(F)(F)F)cc1F` [Compound 354, N-(2-(benzo[d]isothiazol-3-ylamino)ethyl)-2-fluoro-4-(trifluoromethyl)benzamide], the half-inhibitory concentration (IC50) was less than 5 µM.
With `O=C(NCCNc1nsc2ccccc12)c1ccc(C(F)(F)F)c(F)c1` [Compound 355, N-(2-(benzo[d]isothiazol-3-ylamino)ethyl)-3-fluoro-4-(trifluoromethyl)benzamide], the IC50 was less than 5 µM.
Regarding `O=C(NCCNc1nsc2ccccc12)c1ccc(C(F)(F)F)cc1C(F)(F)F` [Compound 356, N-(2-(benzo[d]isothiazol-3-ylamino)ethyl)-2,4-bis(trifluoromethyl)benzamide], the IC50 was less than 5 µM.
In the case of `O=C(NCCNc1nsc2ccccc12)c1cc(C(F)(F)F)ccc1C(F)(F)F` [Compound 357, N-(2-(benzo[d]isothiazol-3-ylamino)ethyl)-2,5-bis(trifluoromethyl)benzamide], the IC50 is less than 5 µM.
As for `O=C(NCCNc1nsc2ccccc12)c1c(F)cccc1C(F)(F)F` [Compound 358, N-(2-(benzo[d]isothiazol-3-ylamino)ethyl)-2-fluoro-6-(trifluoromethyl)benzamide], the IC50 was greater than 5 µM.
`COc1ccc(-c2ccc(C(=O)NCCNc3nsc4ccccc34)cc2)cc1` [Compound 360, N-(2-(benzo[d]isothiazol-3-ylamino)ethyl)-4′-methoxybiphenyl-4-carboxamide]: the IC50 was less than 5 µM.
On the same count and under the same terms, to `COc1ccc(-c2ccc(C(=O)NCCNc3nsc4ccccc34)cc2)cc1OC` [Compound 361, N-(2-(benzo[d]isothiazol-3-ylamino)ethyl)-3′,4′-dimethoxybiphenyl-4-carboxamide] belongs less than 5 µM; to `COc1ccc(Cl)cc1-c1ccc(C(=O)NCCNc2nsc3ccccc23)cc1` [Compound 362, N-(2-(benzo[d]isothiazol-3-ylamino)ethyl)-5′-chloro-2′-methoxybiphenyl-4-carboxamide], less than 5 µM.

Still in this assay, the particulars now being: Table 5; the head prints only IC50; b387 says Tables 5 and 6 hold Replicon reporter and Western blot results.
As for `O=C(NCCNc1nsc2ccccc12)c1ccc(F)c(F)c1` [Compound 359, N-(2-(benzo[d]isothiazol-3-ylamino)ethyl)-3,4-difluorobenzamide], the concentration for half-maximal inhibition (IC50) result is “A, B”.
